Laboratory results as given in publication PMC2931818 (Anti-cancer drugs, 2010).
One block for each compound: values may come before it.

Key:
[1] = 5-FU plasma concentration at steady state during 46-h infusion; format: in vivo, human; conditions: cycle 2; 2400 mg/m^2 46-h continuous infusion
[2] = Edotecarin plasma pharmacokinetics in cancer patients after 1-h IV infusion; format: in vivo, human; conditions: for AUC (0-inf) / AUC (0–24): 6 mg/m^2 dose only; for AUC (0-inf) / AUC (0–24) / CL (total body-clearance) / T (terminal half-life) / Vss / Dose normalized AUC (0-inf) / Dose normalized AUC (0–24) / Dose normalized Cmax / half-life / Tmax: mean ± SD; for Dose normalized AUC (0-inf) / Dose normalized AUC (0–24) / Dose normalized Cmax: normalized to a 1 mg/m^2 dose; for half-life / Tmax: human, plasma, intravenous; for half-life: T (terminal half-life)
[3] = test system: advanced/metastatic solid tumors; experiment: Tumor response by Response Evaluation Criteria in Solid Tumors; format: in vivo, human; conditions: 14 treated patients, edotecarin/5-FU/LV
[4] = test system: patients with advanced/metastatic solid tumors
[5] = test system: topoisomerase I (Topo I); conditions: cited from earlier work
[6] = test system: human CRC model (HCT-116); conditions: no added toxicity; cited from earlier work
[7] = test system: cells that have acquired resistance related to P-glycoprotein; conditions: cited from earlier work
[8] = test system: liver micrometastases; conditions: mice; cited from earlier work
[9] = test system: patients with solid tumors; conditions: single agent, cited from earlier work
[10] = test system: irinotecan-naïve patients with CRC; conditions: single agent 13 mg/m^2, cited from earlier work
[11] = test system: P450; conditions: cited from earlier work
[12] = test system: HCT-116 colon, SCC-25 tongue, A427 NSCL and J82 human carcinoma cell lines; conditions: variety of cell lines (e.g. colon, non-small cell, lung, tongue and bladder); cited from earlier work
[13] = all 14 patients, all cycles, edotecarin with 5-FU/LV

average concentration obtained at steady state [1]: 455.9 ± 222.8 ng/mL
SMILES: O=c1[nH]cc(F)c(=O)[nH]1 [5-FU, 5-fluorouracil]

SMILES: O=C1c2c(c3c4ccc(O)cc4n([C@@H]4O[C@H](CO)[C@@H](O)[C@H](O)[C@H]4O)c3c3[nH]c4cc(O)ccc4c23)C(=O)N1NC(CO)CO [Edotecarin, 6–N-(1-hydroxymethyla-2-hydroxyl) ethylamino-12,13-dihydro-13-(beta-D-glucopyranosyl)-5Hindolo(2,3-a)-pyrrolo(3,4-c)-carbazole-5,7(6H)-dione]
AUC (0-inf) ([2]; cycle 1): 124.5 ± 34.7 ng/h/mL | AUC (0–24) ([2]; cycle 1): 91.0 ± 21.6 ng/h/mL | CL (total body-clearance) ([2]; cycle 1): 51.3 ± 12.4 l/h/m^2 | T (terminal half-life) ([2]; cycle 1): 25.3 ± 6.4 h | Vss ([2]; cycle 1): 884.4 ± 296.0 l/m^2 | Dose normalized AUC (0-inf) ([2]; cycle 1): 20.7 ± 5.4 ng/h/mL | Dose normalized AUC (0–24) ([2]; cycle 1): 15.3 ± 3.6 h/ng/mL | Dose normalized Cmax ([2]; cycle 1): 13.2 ± 2.9 ng/mL | AUC (0-inf) ([2]; cycle 2): 91.7 ± 31.9 ng/h/mL | AUC (0–24) ([2]; cycle 2): 65.3 ± 22.9 ng/h/mL | CL (total body-clearance) ([2]; cycle 2): 73.3± 29.7 l/h/m^2 | T (terminal half-life) ([2]; cycle 2): 20.3 ± 4.2 h | Vss ([2]; cycle 2): 1408.7± 999.7 l/m^2 | Dose normalized AUC (0-inf) ([2]; cycle 2): 15.4 ± 5.1 ng/h/mL | Dose normalized AUC (0–24) ([2]; cycle 2): 11.1 ± 3.7 h/ng/mL | Dose normalized Cmax ([2]; cycle 2): 10.1 ± 4.4 ng/mL | half-life ([2]; cycle 1): ~25 h | half-life ([2]; cycle 2): ~20 h | Tmax ([2]; cycle 1): 0.48 ± 0.22 h | Tmax ([2]; cycle 2): 0.83 h | disposition after completion of the IV administration ([2]; very rapid initial decline then much slower reduction in plasma concentrations): bi-exponential disposition | patients with progressive disease as best overall response [3]: six patients | patients with stable disease as best overall response [3]: seven patients | patients with complete response as best overall response ([3]; patient with HCC, confirmed by cycle 5): one patient | patients with DLT (grade 3 neutropenia not recovered to grade 1 by day 21) ([4]; 6 mg/m^2 edotecarin cohort without 5-FU bolus, expanded to five patients): one patient | patients with grade 4 neutropenia (DLT) ([4]; 8 mg/m^2 edotecarin cohort, no 5-FU bolus, two of the three patients): 66% | deaths within 30 days of the last treatment dose ([4]; 14 patients): No patients died | patients discontinued from the study because of adverse events (neutropenia) ([4]; 14 patients, 90 cycles): four patients | patients with dose reductions because of AEs (neutropenia) ([4]; 14 patients, 90 cycles): three patients | patients with serious adverse events ([4]; 14 patients, 90 cycles, two treatment-related, two unrelated): four patients | patients with fatigue (AE overall) [4, 13]: 64% | patients with neutropenia (AE overall) [4, 13]: 57% | patients with pyrexia (AE overall) [4, 13]: 50% | patients with vomiting (AE overall) [4, 13]: 42% | patients with fatigue during cycle 1 ([4]; all 14 patients, cycle 1): 35% | patients with nausea during cycle 1 ([4]; all 14 patients, cycle 1): 50% | patients with neutropenia during cycle 1 ([4]; all 14 patients, cycle 1): 50% | changes in clinical laboratory parameters, vital signs measurements, or ECG results ([4]; edotecarin with 5-FU/LV): No clinically important treatment-related changes | gastrointestinal toxicities, especially diarrhea ([4]; edotecarin with 5-FU/LV, in general): minimal | maximum tolerated dose ([4]; edotecarin with infusional 5-FU/LV every 2 weeks, only 6 and 8 mg/m^2 explored): no maximum tolerated dose was declared | induction of single-strand DNA cleavage ([5]; at different DNA sequences): more effectively than NB-506 or camptothecin | stability of induced DNA-Topo I complexes [5]: more stable than those occurring after exposure to camptothecin or NB-506 | efficacy in combination with 5-FU (concurrent treatment) [6]: efficacy superior in combination than with the drugs as single agents | activity on P-glycoprotein-related resistant cells [7]: effective | inhibition of proliferation of liver micrometastases [8]: highly effective | recommended dose for phase II studies ([9]; 3-week schedule with 1 week permitted for recovery): 13 mg/m^2 | recommended phase II dose ([9]; once every 21 days, ref Hurwitz et al. [8]): 13 mg/m^2 | patients with stable disease (including four minor responses) ([10]; 24 patients, 13 patients): 57% | patients with partial response ([10]; 24 patients, three patients): 13% | median time to tumor progression [10]: 7.1 months | patients with grade 3/4 febrile neutropenia ([10]; one patient): 4.2% | formation of active metabolites [11]: does not form any active metabolites | substrate for in vitro P450-mediated metabolism [11]: is not a substrate | effect of the combination of edotecarin with 5-FU [12]: additive effect
